Here are results for 65 molecules from a melting point compilation (Tetko et al.; mined from patent text by program, amines drawn as free bases though some values may be those of a salt).

Where only a bound is given, the exact number is not on record here.

With `COc1cc(OCc2ccccn2)ccc1/C=C/c1cc(/C=C/c2ccccc2)[nH]n1`, the melting point is 143 to 146 °C.

For `CCC12CCC3c4ccc(OC)cc4C(C)CC3C1CCC2O` (stereo not given), the melting point fell in the range of 150 to 160 °C.

As for `CCOc1ccc(S(=O)(=O)N2CCN(C)CC2)cc1-c1nc2cccnc2c(=O)[nH]1`, the melting point was in the range of 212 to 215 °C.

Take `O=C(O)c1ccc(Oc2ccccc2C(=O)O)cc1`: the melting point lay within 220 to 223 °C.

Regarding `CCOc1ccc(C2C(C(=O)c3ccc(C(C)C)cc3)=C(O)C(=O)N2c2ccc(C)nn2)nc1` (stereo not given), the melting point was 198 to 199 °C.

As for `CC(=O)NC[C@H]1CN(c2ccc(N3CCN(C(=O)CO)CC3)c(F)c2)C(=O)O1`, the melting point was 87 to 90 °C.

For the molecule `COc1ccc(-c2ccc3cc(CO)ccc3c2)cc1C12CC3CC(CC(C3)C1)C2`, the melting point lay within 169 to 171 °C.

`Nc1c(CCO)cccc1C(O)c1ccc(Cl)cc1` (stereo not given) showed a melting point of 132 to 134 °C.

`COC(=O)C1=NNC(C)=C(C(=O)OC)C1c1cc([N+](=O)[O-])ccc1Cl` (stereo not given) had a melting point of 193 to 194 °C.

`c1ccc(OCCSCc2ncc(-c3ccc(N=C(c4ccccc4)c4ccccc4)cc3)o2)cc1` gave a melting point of 86 to 90 °C.

In turn, `CCc1c2nc(-c3cc(S(C)(=O)=O)ccc3OCC(C)C)[nH]c(=O)c2nn1C1CCN(C(C)C)CC1` came in with a melting point of 273 to 275 °C.

In the case of `Cc1csc(-c2ccc3c(ccn3S(=O)(=O)c3ccccc3)c2)n1`, the melting point fell in the range of 209 to 210 °C.

Molecule `CC(=S)NCC1CN(c2ccc(NC=O)c(F)c2)C(=O)O1` (stereo not given) returned a melting point of 177 to 178 °C.

Regarding `COC(=O)c1ccc2c(c1)C(c1ccccn1)CC(C)(C)O2` (stereo not given), the melting point was in the range of 113 to 115 °C.

Take `CN1CCCC1=NC(=O)Nc1ccc(Cl)c(C(F)(F)F)c1`: the melting point was 175 °C.

`COc1ccc(N2C(=O)[C@@H](NC(=O)Cc3ccccc3)[C@H]2C=CC(=O)[C@@H]2CCCO2)cc1` returned a melting point of 159 to 162 °C.

`COc1ccc(OC)c2c1C(=O)c1ccc(C)cc1C2OC` (stereo not given): the melting point fell in the range of 177 to 179 °C.

Molecule `Cc1ccc(C)n1-c1ccc(/C=C/C(=O)N(C)O)cc1` came in with a melting point of 143 to 145 °C.

For `NCC(=O)N(O)Cc1ccccc1`, the melting point lay within 142 to 143 °C.

`Cc1cc(C(C)(C)CBr)c(C)nn1` returned a melting point of 45 to 46 °C.

Molecule `O=c1[nH]c2cc3cc(N4CCCC4)ccc3nc2[nH]1` yielded a melting point above 300 °C.

`CCOC(=O)C1=C(CCl)N2CCOC2(C)C(C(=O)OC)C1c1ccccc1Cl` (stereo not given) showed a melting point of 142 to 143 °C.

Turning to `CCn1ncc2c1ncc1c(NCCN(C)C)nc3cc(C)nn3c12`, the melting point is 124 to 126 °C.

Consider `CCOC(=O)c1c(O)cc(C(F)(F)Cl)nc1C(F)(F)F`, for which the melting point lay in the range of 56.5 to 58.5 °C.

Consider `Cc1cccc(-c2n[nH]cc2-c2ccc(F)c(-c3cnn(CCO)c3)c2)n1`, for which the melting point lay in the range of 132 to 135 °C.

The molecule `CSc1cnc(NC2=NCC3(CN4CCC3CC4)O2)cn1` (stereo not given) gave a melting point of 155 to 160 °C.

For the molecule `Cc1nc2ccc(F)cc2n1C1CC2CC(=O)CC2C1` (stereo not given), the melting point was in the range of 199 to 200 °C.

Turning to `COC(=O)N[C@@H]1CCc2ccc(Br)cc2C1`, the melting point lay within 99 to 100 °C.

The molecule `CSCCC(NC=O)C(N)=O` (racemic) showed a melting point of 121 to 122 °C.

In turn, `CCCc1ccc(CCCCCCCC(=O)O)cc1` displayed a melting point of 42 to 43 °C.

Consider `O=C(CC1CCCCC1)c1c(O)c2cccnc2n(-c2ccccc2)c1=O`, for which the melting point fell in the range of 231 to 233 °C.

In turn, `CC(=O)Nc1nc2ccccc2n1-c1nc(N2CCOCC2)nc(N2CCOCC2)n1` had a melting point of 150 to 153 °C.

In turn, `CC(=O)Nc1ccc(-c2cc(-c3c(-c4cccc(C)n4)nc4ccccn34)ccn2)cc1` displayed a melting point of 257 °C.

In turn, `Cc1ccc(-n2c(=O)n(OCc3ccccc3)c(=O)c3cc(F)c(N4CCCC4)nc32)cc1` yielded a melting point of 192 to 194 °C.

In turn, `CC(Br)CCCCN1C(=O)c2ccccc2C1=O` (stereo not given) registered a melting point of 48 to 51 °C.

For the molecule `Cc1cc2c(c([N+](=O)[O-])c1)N(c1ccccc1C#N)CC2`, the melting point was in the range of 138 to 139 °C.

The molecule `CC1(C)COc2ccc(S(=O)(=O)n3c(Cc4ccccc4C(=O)O)cc4cc(Cl)ccc43)cc21` came in with a melting point of 190 °C.

With `COc1ccc(C(=O)NCCc2ccc(-c3ccc(O)cc3)cc2)c(OC)c1`, the melting point turned out to be 190 °C.

Consider `CC1(C)CON(Cc2cc(N3C(=O)C4=C(CCCC4)C3=O)c(F)cc2Cl)C1=O`, for which the melting point fell in the range of 136 to 138 °C.

With `NC(=O)Cc1ccc2c(c1)C(=O)Cc1cccnc1S2`, the melting point was in the range of 215 to 216 °C.

`ClCc1ccc2ccc3cccc4ccc1c2c34` had a melting point of 146 to 148 °C.

In the case of `Cc1cccc(Nc2cc(Cl)nc(SCC(=O)O)n2)c1C`, the melting point fell in the range of 146 to 151 °C.

The molecule `O=C1c2c(cc(O)c(O)c2[N+](=O)[O-])CC1CN1CCOCC1` (stereo not given) gave a melting point of 193 to 195 °C.

For the molecule `O=C(O)CCC1(CCC(=O)O)CCCCC(CCC(=O)O)(CCC(=O)O)C1=O`, the melting point lay in the range of 230 to 232 °C.

As for `Cc1nnc(-c2ccc3scc(-c4ccc(S(C)(=O)=O)cc4)c3c2)o1`, the melting point lay in the range of 231 to 232 °C.

For `COCCOc1cc2c(Nc3ccc(Sc4nccn4C)c(Cl)c3)c(C#N)cnc2cc1OCCCN(C)C`, the melting point fell in the range of 194 to 203 °C.

In turn, `CC1(c2nc(NC3CC3)nc(N3CCOCC3)n2)CC1` yielded a melting point of 94 to 95 °C.

Take `CCOC(=O)c1c[nH]n(Cc2ccccc2)c1=O`: the melting point was in the range of 79 to 81 °C.

`Cn1nnc(-c2cccc(N)c2)n1` yielded a melting point of 97 °C.

Consider `Cc1nc2c3c(ccn2c1C)C(=O)C(O)C(c1ccsc1)N3` (stereo not given), for which the melting point lay in the range of 222 to 225 °C.

In turn, `COc1ccc(-c2c(Cl)c(CCl)nc3cc(OC)c(OC)cc23)cc1OC` gave a melting point of 206 to 207 °C.

Consider `Cc1cc([N+](=O)[O-])c(C)cc1O`, for which the melting point lay in the range of 121 to 123 °C.

Take `CCCCCNC(=O)N(C)c1cccc(-c2ccc(C=C(C)C(=O)O)cc2OCCCC)c1`: the melting point is 87 to 89 °C.

In turn, `CCCCn1nc2c(N)nc3ccccc3c2c1CC(C)(C)C` returned a melting point of 163 to 164 °C.

In turn, `O=Cc1cc(Br)cnc1N1CCC(CO)C1` (stereo not given) registered a melting point of 84 to 85.5 °C.

In turn, `CCCCn1c(=O)c(NC(=O)Nc2c(C(C)C)cccc2C(C)C)c(-c2cccc(OCCO)c2)c2cccnc21` had a melting point of 106 to 110 °C.

For the molecule `CC[C@@H](c1ccccc1)N(Cc1ccc(C(=O)O)c(F)c1F)S(=O)(=O)c1ccc(Cl)cc1`, the melting point lay within 127 to 129 °C.

For `COc1c(C(=O)O)n(C)c(=O)c2ccc(Cl)cc12`, the melting point was in the range of 216 to 217 °C.

Molecule `O=[N+]([O-])c1cc(Cl)c(O)cc1OCCO` gave a melting point of 159 °C.

`Cc1nc(Cn2c(=O)sc3cc(F)c(N=C=S)cc32)no1` yielded a melting point of 168 to 170 °C.

`CC(C)c1cccc(C(C)C)c1NC(=O)C(N)Cc1ccc(OCc2ccccc2)cc1` (stereo not given): the melting point is 117 to 122 °C.

As for `O=c1cc(-c2ccncn2)nc2n1Cc1ccccc1N2`, the melting point was in the range of 290 to 292 °C.

Take `CCC(=O)C(=Cc1cccc(C#N)c1)C(=O)CC`: the melting point was in the range of 51 to 52 °C.

For `CCc1c(CC(=O)NCCCCCCNC(=O)Cc2ccc([N+](=O)[O-])cc2)ccc(OC)c1OC`, the melting point lay within 146 to 148 °C.

Molecule `CC1=C(c2ccncc2)CC(C)C(=O)N1` (stereo not given) gave a melting point of 148 to 150 °C.

For orientation: melting point means the temperature of the solid-liquid transition.
